One compound from US11344601B2, “Tumor microenvironment-related target TAK1 and application thereof in inhibition of tumor” (Shanghai Institutes for Biological Sciences, Chinese …, priority 2017, dated 2022) can be followed below.

One test concerns IL-8. The experiment in a line: IL-8 protein expression of damaged stromal cells (Western blot, ELISA). Type of test: cell-based, human. As to the method:
FIG. 15. The stromal cells were collected on Day 7 after bleomycin and/or 5Z-7 treatment. The lysates were analyzed by Western blot for their phosphorylation levels of ATM and TAK1, and activation of TAK1 downstream substrate JN K and p38. IL-8, a chemokine was used as a marker secreted factor of SASP, whose expression level was simultaneously analyzed. FIG. 33. The extracellular fluid released by each group of cells were tested by ELISA to determine the protein expression level of the secreted factor IL-8.
A general note: In western blotting, separated proteins are transferred to a membrane and probed.

Test [1] concerns prostate cancer epithelial cell lines (BPH1, M12, PC3, DU145 and LNCaP). The experiment in a line: Chemotherapy resistance of cancer cells conferred by extracellular fluid of damaged PSC27 stromal cells. The following applies: stromal cells treated with TAK1 inhibitor. It counts as cell-based, human. As to the method: c. Experimental Treatment In Vitro • 100 nM docetaxel (DTX), 100 nM paclitaxel (PTX), 200 nM vincristine (VCR), 50 μg/ml bleomycin (BLEO), 1 μM mitoxantrone (MIT), or 10 Gy ^137CS ionizating radiation (γ-radiation at 743 rad/min, RAD) was added to the culture medium when PSC27 cells grown to 80% (PSC27-Pre) to produce cell damage. After drug treatment for 6 hours, the cells were simply washed by PBS for 3 times and kept in the culture medium for 7 to 10 days, followed by subsequent experiments. 2. Plasmid Preparation and Lentiviral Transfection • Full-length human IKKα and Flag were cloned as a fusion protein between the restriction sites BamHI and XbaI in the expression vector pCR3.1. Full-length human mTOR and GST were cloned as a fusion protein between a pair of NotI restriction sites in the expression vector pcDNA3. Packaging cell line 293FT was used for cell transfection and lentivirus production. […] FV1000 laser scanning confocal microscopy (Olympus) was used to obtain cellular confocal fluorescence images to determine the extent of DNA damage. • Antibody anti-TAK1 used for histological IHC staining in clinical prostate, non-small cell lung cancer patients and breast cancer patients, was purchased from Proteintech, idib. […] Quantitative PCR for Measuring Gene Expression […]

The target in a further test is T1, TAK1 (Homo sapiens, UniProt O43318).
T1 construct: PSC27 cells were treated with bleomycin and cell lysates were subject to anti-p-TAK1-mediated IP precipitation; endogenous in cells; host or cells: PSC27 human prostate stromal cells
T1 sequence (O43318 1-606): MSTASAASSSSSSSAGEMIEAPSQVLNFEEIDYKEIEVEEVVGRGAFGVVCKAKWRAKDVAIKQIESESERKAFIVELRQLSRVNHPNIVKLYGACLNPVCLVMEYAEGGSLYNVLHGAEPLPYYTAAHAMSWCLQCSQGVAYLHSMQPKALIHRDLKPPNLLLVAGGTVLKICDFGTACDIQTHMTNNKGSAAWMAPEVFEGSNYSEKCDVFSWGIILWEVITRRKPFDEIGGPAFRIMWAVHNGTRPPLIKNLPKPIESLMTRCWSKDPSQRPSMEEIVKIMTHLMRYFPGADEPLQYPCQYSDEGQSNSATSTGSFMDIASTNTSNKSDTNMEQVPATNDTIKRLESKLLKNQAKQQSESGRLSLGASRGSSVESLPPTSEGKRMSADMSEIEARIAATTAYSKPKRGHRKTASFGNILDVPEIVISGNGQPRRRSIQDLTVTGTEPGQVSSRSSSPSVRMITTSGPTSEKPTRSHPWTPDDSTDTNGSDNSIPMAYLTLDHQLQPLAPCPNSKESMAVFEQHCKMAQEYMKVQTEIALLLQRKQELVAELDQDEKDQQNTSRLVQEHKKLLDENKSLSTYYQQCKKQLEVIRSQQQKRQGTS
The experiment in a line: IP, in vitro kinase assay and Western blot of TAK1 activation in damaged PSC27 stromal cells. Type of test: cell-based.

Another test relates to PSC27 cells. The test can be described thus: DNA damage response foci, colony formation, cell cycle arrest and SA-β-Gal in PSC27 cells. It counts as cell-based, human.

Procedure for PSC27 cells: Experimental Treatment In Vitro • 100 nM docetaxel (DTX), 100 nM paclitaxel (PTX), 200 nM vincristine (VCR), 50 μg/ml bleomycin (BLEO), 1 μM mitoxantrone (MIT), or 10 Gy ^137CS ionizating radiation (γ-radiation at 743 rad/min, RAD) was added to the culture medium when PSC27 cells grown to 80% (PSC27-Pre) to produce cell damage. After drug treatment for 6 hours, the cells were simply washed by PBS for 3 times and kept in the culture medium for 7 to 10 days, followed by subsequent experiments. […] Immunofluorescence and Histochemical Analysis • Mouse monoclonal antibody anti-phospho-Histone H2A.X (Ser139) (clone JBW301, Millipore) or mouse monoclonal antibody anti-Phosphor-53BP1 (Cat #sc-135748, Santa Cruz), and secondary antibody Alexa Fluor® 488 (or 594)-conjugated F(ab′)2 were added sequentially to slides on which cells were fixed. Nuclei were counterstained with 2 μg/ml of 4′,6-diamidino-2-phenylindole (DAPI). The most representative image was selected from the 3 observation fields for data analysis and result presentation. FV1000 laser scanning confocal microscopy (Olympus) was used to obtain cellular confocal fluorescence images to determine the extent of DNA damage. • Antibody anti-TAK1 used for histological IHC staining in clinical prostate, non-small cell lung cancer patients and breast cancer patients, was purchased from Proteintech, idib.
Procedure for TAK1: In the presence of the TAK1 inhibitor 5Z-7, PSC27 cells were treated with bleomycin and cell lysates were subject to anti-p-TAK1-mediated IP precipitation. IP products were analyzed by in vitro kinase assay, and MKK6 was used as TAK1 substrate. p38 phosphorylation was analyzed by Western blot with GAPDH as the loading control. In addition, IL-1α (20 ng/ml) was used to treat stromal cells and was further analyzed by similar IP and in vitro kinase assay.

With `COc1cc(O)c2c(c1)/C=C/C[C@H](O)[C@H](O)C(=O)/C=C\C[C@H](C)OC2=O` [5Z-7, 5z-7-oxozeaenol], the “chemokine IL-8 protein levels induced by DNA damage” value with IL-8 (ELISA of extracellular fluid, bleomycin plus inhibitor) is “significantly reduced”. Moreover, the “protein expression level of IL-8” value with IL-8 (Western blot, Day 7 after bleomycin and/or 5Z-7) was “significantly downregulated”. Moreover, the “resistance of cancer cells to docetaxel conferred by stromal cell extracellular fluid” value in test [1] (docetaxel) was “attenuate the acquired resistance”. Further, the “resistance of cancer cells to mitoxantrone conferred by stromal cell extracellular fluid” value in test [1] (mitoxantrone at IC50 concentration) is “significantly weakened”. Further, the “activation of TAK1 in damaged stromal cells” value at TAK1 (bleomycin-treated PSC27, 500 nM 5Z-7, IP and in vitro kinase assay with MKK6) is listed as “largely abolished”. The “physical interaction between TAK1 and TRAF6” value at TAK1 (p-TAK1 antibody IP after bleomycin) is “abolished”. Besides, the “colony forming ability of PSC27 cells” value in the test on PSC27 cells (bleomycin and/or 5Z-7, Day 7) is “not associated with the inhibition of TAK1 activity”. In addition, in the test on PSC27 cells (bleomycin-treated cells, presence or absence of inhibitor), the “single-cell level of DDR foci” value is listed as “did not change significantly”.
